These are literature values, as cited in patent US8642081B2, “Chewable, suckable and swallowable tablet containing a calcium-containing compound as an active substance” (Takeda Nycomed AS, priority 2004, dated 2014).

The subject of the data set is treated patients. The conditions noted are these: annual injections of 150.000-300.000 IU.

vitamin D: the overall fracture rate result was “significant reduction” and the “rate of hip fracture” value was “not”.
